The results in this text go back to patent publication US4451461A, “10-(1-Aza-[2,2,2)-bicyclo-3-octyl]-10H-2-phenothiazinesulfonamide and derivatives thereof” (Pharmindustrie, priority 1981, dated 1984).

The experiment concerns gastric hypersecretion stimulated by pentagastrine (Heidenhein pouch dogs). Kind of experiment: Anti-secretory activity against pentagastrine-stimulated gastric hypersecretion in dogs fitted with the Heidenhein pouch. The class given is in vivo, dog (mongrels). As to conditions: for ED50 (dose which reduces the hourly acid output by 50% during the 3rd or 4th hour in relation to the second hour of perfusion): p.o., gelatine capsule, 1.5 h after start of pentagastrine perfusion, dogs, doses expressed as base. How it is done: The anti-secretory activity of the compounds of formula (I) according to the invention has been investigated in cases of gastric hypersecretion which has been stimulated by pentagastrine in dogs fitted with the Heidenhein pouch.
Three mongrels, fitted with the Heidenhein pouch and not having eaten for 18 hours, were given a veinous perfusion of […] pentagastrine, at a volume of 30 ml/hour for 4 hours. The secretion in the pouch was collected in a bottle which was changed every 15 minutes. 1.5 hours after commencement of the perfusion, the product to be investigated was administered orally in an h°000 gelatine-coated capsule. The effective dose 50% (ED50) is the dose which reduces the hourly acid output by 50% during the 3rd or 4th hour of the experiment in relation to the acid output of the second hour of perfusion. The doses are expressed as a product in basic form.

As for `CNS(=O)(=O)c1ccc2c(c1)N(C1CN3CCC1CC3)c1ccccc1S2` (stereo not shown) [Example 2, N-METHYL-10-[1-AZA-(2,2,2)-BICYCLO-3-OCTYL]-10H-2-PHENOTHIAZINESULFONAMIDE], the “ED50 (dose which reduces the hourly acid output by 50% during the 3rd or 4th hour in relation to the second hour of perfusion)” value is 0.7 mg/kg. In addition, the “activity compared with cimetidine (in words)” value (Heidenhein pouch dogs, oral, vs cimetidine) is listed as “more active than cimetidine”.

Regarding `CN/C(=N/CCSCc1nc[nH]c1C)NC#N` [Cimetidine], the “ED50 (dose which reduces the hourly acid output by 50% during the 3rd or 4th hour in relation to the second hour of perfusion)” value amounted to 2.3 mg/kg.

Take `CN(C)S(=O)(=O)c1ccc2c(c1)N(C1CN3CCC1CC3)c1ccccc1S2` (stereo not shown) [N,N-dimethyl-10-[1-aza-(2,2,2)-bicyclo-3-octyl]-10H-2-phenothiazinesulfonamide]: the “ED50 (dose which reduces the hourly acid output by 50% during the 3rd or 4th hour in relation to the second hour of perfusion)” value was found to be 1.25 mg/kg.
